B1: Preparation C: TcdB fragment AS1601-1716 (DSG motif) (protein, UniProt P18177 1601-1716, looked up, fragment)
chain: NIKFILDANFIISGTTSIGQFEFICDENDNIQPYFIKFNTLETNYTLYVGNRQNMIVEPNYDLDDSGDISSTVINFSQKYLYGIDSCVNKVVISPNIYTDEINITPVYETNNTYPE
B2: Preparation D: TcdB fragment AS1508-1601 (part of the inosine-binding motif) (protein, UniProt P18177 1508-1601, looked up, fragment)
chain: YYSNNLKDVKVITKDNVNILTGYYLKDDIKISLSLTLQDEKTIKLNSVHLDESGVAEILKFMNRKGNTNTSDSLMSFLESMNIKSIFVNFLQSN

Columns and labels:
TcdB10463 [1] = target: T1, TcdB10463 (Clostridioides difficile, UniProt P18177); assay: In vitro cleavage assay of TcdB10463 after pre-treatment with protease inhibitor EPNP; type: biochemical, Clostridium difficile
T1 construct: the TcdB10463, purified from culture supernate of C. difficile, used in the experiments; purchased tgcBIOMICS, Mainz, Germany; host or cells: Clostridium difficile VPI10463 culture supernatant
T1 sequence (P18177 whole entry): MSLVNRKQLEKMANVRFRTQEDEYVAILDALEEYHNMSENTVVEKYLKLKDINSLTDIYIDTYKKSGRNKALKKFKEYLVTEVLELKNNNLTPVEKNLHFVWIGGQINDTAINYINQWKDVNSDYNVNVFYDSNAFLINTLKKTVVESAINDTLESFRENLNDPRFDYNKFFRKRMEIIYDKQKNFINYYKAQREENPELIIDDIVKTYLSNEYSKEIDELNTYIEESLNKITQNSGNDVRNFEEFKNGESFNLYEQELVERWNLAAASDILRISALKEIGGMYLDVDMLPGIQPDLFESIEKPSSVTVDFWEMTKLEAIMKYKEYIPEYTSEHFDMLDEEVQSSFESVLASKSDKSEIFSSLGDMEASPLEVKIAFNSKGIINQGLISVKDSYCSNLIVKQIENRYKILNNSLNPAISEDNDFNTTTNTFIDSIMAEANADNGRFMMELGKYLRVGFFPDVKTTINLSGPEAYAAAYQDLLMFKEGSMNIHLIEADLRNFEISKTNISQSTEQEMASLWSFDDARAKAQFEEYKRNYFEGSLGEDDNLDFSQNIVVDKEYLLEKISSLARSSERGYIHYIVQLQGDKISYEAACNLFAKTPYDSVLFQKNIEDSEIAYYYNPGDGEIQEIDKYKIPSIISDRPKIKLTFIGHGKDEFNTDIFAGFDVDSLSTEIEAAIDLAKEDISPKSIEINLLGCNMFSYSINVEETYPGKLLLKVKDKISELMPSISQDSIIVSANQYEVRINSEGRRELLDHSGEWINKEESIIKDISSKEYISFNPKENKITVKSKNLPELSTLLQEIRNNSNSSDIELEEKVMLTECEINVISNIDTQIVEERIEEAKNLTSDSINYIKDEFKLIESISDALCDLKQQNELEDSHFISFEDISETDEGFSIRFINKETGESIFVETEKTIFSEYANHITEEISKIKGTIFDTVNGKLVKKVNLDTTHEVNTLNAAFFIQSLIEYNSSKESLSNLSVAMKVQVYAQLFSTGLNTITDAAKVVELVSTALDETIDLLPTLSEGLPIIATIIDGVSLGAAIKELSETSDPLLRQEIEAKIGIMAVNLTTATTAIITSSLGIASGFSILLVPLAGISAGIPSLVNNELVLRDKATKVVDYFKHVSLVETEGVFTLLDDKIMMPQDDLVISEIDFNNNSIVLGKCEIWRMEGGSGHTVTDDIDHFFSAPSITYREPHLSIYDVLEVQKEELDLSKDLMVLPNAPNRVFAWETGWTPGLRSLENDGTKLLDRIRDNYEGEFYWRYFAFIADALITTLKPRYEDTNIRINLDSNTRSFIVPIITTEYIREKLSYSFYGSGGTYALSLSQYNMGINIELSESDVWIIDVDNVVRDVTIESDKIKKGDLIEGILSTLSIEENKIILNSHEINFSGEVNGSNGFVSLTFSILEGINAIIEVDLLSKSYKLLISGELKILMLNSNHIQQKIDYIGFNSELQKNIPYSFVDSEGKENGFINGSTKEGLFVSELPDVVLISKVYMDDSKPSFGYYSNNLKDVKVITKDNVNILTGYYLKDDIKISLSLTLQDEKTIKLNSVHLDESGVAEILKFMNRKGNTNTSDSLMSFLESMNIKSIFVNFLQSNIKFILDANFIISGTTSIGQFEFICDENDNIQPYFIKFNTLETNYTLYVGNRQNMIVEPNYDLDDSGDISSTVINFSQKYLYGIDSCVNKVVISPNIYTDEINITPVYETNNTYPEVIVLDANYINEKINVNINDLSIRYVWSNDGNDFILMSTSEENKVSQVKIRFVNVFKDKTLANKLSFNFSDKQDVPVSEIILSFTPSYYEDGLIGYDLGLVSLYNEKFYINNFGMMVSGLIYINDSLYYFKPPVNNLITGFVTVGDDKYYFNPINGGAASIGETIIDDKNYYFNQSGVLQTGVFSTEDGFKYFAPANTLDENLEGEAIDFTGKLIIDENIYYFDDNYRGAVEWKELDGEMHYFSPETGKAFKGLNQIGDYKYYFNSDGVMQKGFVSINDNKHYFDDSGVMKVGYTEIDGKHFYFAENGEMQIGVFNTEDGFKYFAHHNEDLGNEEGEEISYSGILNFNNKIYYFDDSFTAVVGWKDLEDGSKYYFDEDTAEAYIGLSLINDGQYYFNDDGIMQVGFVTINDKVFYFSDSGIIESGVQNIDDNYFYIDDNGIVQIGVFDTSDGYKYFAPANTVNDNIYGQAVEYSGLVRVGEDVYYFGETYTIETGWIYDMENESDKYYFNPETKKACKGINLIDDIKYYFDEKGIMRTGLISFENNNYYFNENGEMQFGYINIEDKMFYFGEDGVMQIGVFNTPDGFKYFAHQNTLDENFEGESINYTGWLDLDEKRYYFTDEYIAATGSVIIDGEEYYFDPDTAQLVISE
Experimental: TcdB10463 was purified as described in Example 1 (D) by means of affinity chromatography with the use of the monoclonal antibody 2CV and then pre-treated either (i) with the protease inhibitor EPNP (10 mM 1,2-epoxy-3-(p-nitrophenoxy)-propane) or (ii)—as control—with buffer (50 mM HEPES, 1M NaCl, 1 mM EDTA, pH 8.0) for 60 minutes at room temperature.
Then an in vitro cleavage assay analogous to Example 1 (A) was carried out. The test batches comprised respectively a volume of 10 μl, and contained respectively 50-100 ng unmarked TcdB10463, 100 μM IP6 and 10 mM tris-HCl pH 8.5. Following the incubation (1 h at room temperature), these test batches were subjected to a SDS-PAGE (10%) and the toxins and toxin fragments were then made visible by means of zinc stain.

TcdB10463 [2] = target: T1, TcdB10463; type: biochemical, Clostridium difficile
TcdB = TcdB (Clostridioides difficile, UniProt P18177); conditions: for Start of cell rounding after: CHO cells, TcdB pre-treated with polyclonal antiserum (1:100) 1 h at room temperature; for Neutralising effect of the polyclonal antiserum in the CHO test: antiserum of rabbits immunised with the preparation, dilution 1:100
Chain of TcdB (P18177 whole entry): as above
Experimental: The CHO test was carried out as follows: In a 96 well microtiter plate, CHO cells (=Chinese hamster ovarial cells) were disseminated (5000 cells/well) and incubated for 16 hours under standard conditions (5% CO2, DMEM F12 supplemented with […] L-glutamins, 5% FCS). The toxins were then introduced to the cells after gradual dilution in growth medium. Dilution stages between 10° and 10^−8 were tested. The cells were incubated for 3 hours under standard conditions. Then the proportion of rounded cells was determined microscopically, by several representative sections of the well being photographed and the elongated and the rounded cells being counted. (See also Moos et al., Meth Enzymol. 2000, 325: 114-125. Reference is made here expressly to the content of this publication).
In order to check the neutralising effect of the polyclonal antiserums, firstly TcdB was pre-treated with polyclonal antiserum (dilution stage 1:100) and incubated for 1 h at room temperature. Then the neutralising effect of the antiserums was checked as described in Example 2 with the aid of the CHO test. The measurement for the neutalising effect of the serums was how long the cells were protected from the cytotoxic effect of the TcdB.

| Molecule | Start of cell rounding after (TcdB) [h] | Neutralising effect of the polyclonal antiserum in the CHO test (TcdB) | also measured |
| --- | --- | --- | --- |
| O=[N+]([O-])c1ccc(OCC2CO2)cc1 (centres unmarked) [EPNP, 1,2-epoxy-3-(p-nitrophenoxy)-propane] |  |  | 63 kD band in SDS-PAGE (TcdB10463 [1]; TcdB10463 pre-treated with EPNP, after incubation with IP6 (FIG. 2, Line 2)): only weakly formed; Proteolytic activity (protease activity) of TcdB10463 (TcdB10463 [1]; pre-treatment with 10 mM EPNP 60 minutes, then 100 μM IP6 1 h at room temperature): almost completely inhibited |
| O=P(O)(O)O[C@H]1[C@H](OP(=O)(O)O)[C@@H](OP(=O)(O)O)[C@H](OP(=O)(O)O)[C@@H](OP(=O)(O)O)[C@H]1OP(=O)(O)O [IP 1, 2, 3, 4, 5, 6, inositol hexaphosphate] |  |  | Cleavage activity (initiator activity) amongst the tested inositol phosphates (TcdB10463 [2]): strongest cleavage activity; Cleavage of the holotoxin into 63 kDa and 207 kDa fragments (TcdB10463 [2]): complete cleavage |
| B1 | 12 to 15 | smaller neutralising effect |  |
| B2 | 9 to 12 | smaller neutralising effect |  |

Source: US9066961B2, “Medicament for LCT poisoning” (JOHANNES GUTENBERG-UN[…], priority 2006, dated 2015)
